Test results reported in patent US7393846B2, “Heterocyclic compounds useful for the treatment of inflammatory and allergic disorders” (Glenmark Pharmaceuticals, S.A., priority 2003, dated 2008).
Structures can show the parent of a compound that is named as a salt. Where two headings read alike, the source gives them in different places.

Columns and labels:
[1] = test system: PDE4; assay: EC50 of the PDE4 results table (method not given)
[2] = target: PDE4 enzyme; assay: Inhibition of Phosphodiesterase Enzymes (PDE4), [3H]cAMP hydrolysis assay; assay type: biochemical; conditions: PDE4 inhibition, 1 μM cAMP, 34° C., 20 minutes
Experimental: Inhibition of Phosphodiesterase Enzymes (PDE4)
In this assay, PDE4 enzyme converts [^3H] cAMP to the corresponding [^3H] 5′-AMP in proportion to the amount of PDE4 present. The [^3H] 5′-AMP then was quantitatively converted to free [^3H] adenosine and phosphate by the action of snake venom 5′-nucleotidase.
The assay was performed with modification of the method of Thompson and Appleman (Biochemistry; 1971; 10; 311-316) and Schwartz and Passoneau (Proc. Natl. Acad. Sci. U.S.A. 1974; 71; 3844-3848), both references incorporated herein by reference in their entirety, at 34° C. In a 200 ul total reaction mixture, the reaction mixture contained 12.5 mM of Tris, 5 mM MgCl2, 1 μM cAMP (cold) and ^3H cAMP (0.1 uCi), (Amersham). […] Drug samples were then added in the reaction mixture (25 μt/tube). The assay was initiated by addition of enzyme mix (75 μl) and the mixture was incubated for 20 minutes at 34° C. The reaction was stopped by boiling the tubes for 2 mins at 100° C. in a water bath. After cooling on ice for 5 minutes and addition of 50 ug/reaction of 5′-nucleotidase snake venom from Crotalus atrox incubation was carried out again for 20 min. at 34° C. The unreacted substrate was separated from (^3H) Adenosine by addition of Dowex AG 1-X8 (Biorad Lab), (400 ul) which was prequilibrated (1:1:1) in water and ethanol. Reaction mixture was then thoroughly mixed, placed on ice for 15 minutes, vortexed and centrifuged at 14,000 r.p.m. for 2 mins. After centrifugation, a sample of the supernatant was taken and added in 24 well optiplates containing Scintillant (1 ml) and mixed well. The samples in the plates were then determined for radioactivity in a Top Counter and the PDE4 activity was estimated. PDE4 enzyme was present in quantities that yield <30% total hydrolysis of substrate (linear assay conditions).
Results were expressed as percent inhibition (IC50) in nM concentrations. The IC50 values were determined from the concentration curves by nonlinear regression analysis.

SMILES | EC50 [1] [nM] | IC50 [2] [nM] | other results
COc1ccc(C(=O)Nc2c(Cl)cncc2Cl)c2c1oc1ccc(NC(=O)C(=O)O)cc12 [Example 10, N-(3,5-dichloropyrid-4-yl)-4-methoxy-8-hydroxycarbonylcarboxamido-dibenzo[b,d]furan-1-carboxamide sodium salt] |  |  | EC50 ([1]; sodium salt): 38.2 nM; IC50 ([2]; sodium salt): 1.85 nM
CCCCCCNC(=O)Nc1ccc2oc3c(OC)ccc(C(=O)Nc4c(Cl)cncc4Cl)c3c2c1 [Example 27, N-(3,5-dichloropyrid-4-yl)-4-methoxy-8-n-hexylamino carboxamido-dibenzo[b,d]furan-1-carboxamide] | 4.16 | 3.4 | 
O=C(O)C(=O)Nc1ccc2oc3c(OC(F)F)ccc(C(=O)Nc4c(Cl)cncc4Cl)c3c2c1 [Example 39, N-(3,5-dichloropyrid-4-yl)-4-difluoromethoxy-8-hydroxycarbonylcarboxamido-dibenzo[b,d]furan-1-carboxamide disodium salt] |  |  | EC50 ([1]; disodium salt): 9.19 nM; IC50 ([2]; disodium salt): 0.598 nM
CCS(=O)(=O)Nc1ccc2oc3c(OC(F)F)ccc(C(=O)Nc4c(Cl)cncc4Cl)c3c2c1 [Example 32, N-(3,5-dichloropyrid-4-yl)-4-difluoromethoxy-8-ethanesulfonamido-dibenzo[b,d]furan-1-carboxamide] |  | 14.1 | 
CCOC(=O)CNc1ccc2oc3c(OC)ccc(C(=O)Nc4c(Cl)cncc4Cl)c3c2c1 [Example 52, N-(3,5-dichloropyrid-4-yl)-4-methoxy-8-(2-ethoxy-2-oxo-ethylamino)-dibenzo[b,d]furan-1-carboxamide] | 821 | 8.13 | 
CS(=O)(=O)Nc1ccc2oc3c(OC(F)F)ccc(C(=O)Nc4c(Cl)cncc4Cl)c3c2c1 [Example 30, N-(3,5-dichloropyrid-4-yl)-4-difluoromethoxy-8-methanesulfonamido-dibenzo[b,d]furan-1-carboxamide] | 3.59 | 1.63 | 
COc1ccc(C(=O)Nc2c(Cl)cncc2Cl)c2c1oc1ccc(NC(=O)N3CCC(O)CC3)cc12 [Example 24, N-(3,5-dichloropyrid-4-yl)-4-methoxy-8-(4-hydroxypiperidin-1-ylcarboxamido)-dibenzo[b,d]furan-1-carboxamide] | 2.94 | 3.01 | 
CN(C)S(=O)(=O)Nc1ccc2oc3c(OC(F)F)ccc(C(=O)Nc4c(Cl)cncc4Cl)c3c2c1 [Example 33, N-(3,5-dichloropyrid-4-yl)-4-difluoromethoxy-8-N,N-dimethylaminosulfonamido-dibenzo[b,d]furan-1-carboxamide] |  | 12.1 | 
COc1ccc(C(=O)Nc2c(Cl)cncc2Cl)c2c1oc1ccc(NC(=O)N3CCN(C)CC3)cc12 [Example 23, N-(3,5-dichloropyrid-4-yl)-4-methoxy-8-(N-methylpiperazin-4-ylcarboxamido)-dibenzo[b,d]furan-1-carboxamide hydrochloride] |  |  | EC50 ([1]; hydrochloride): 4.14 nM; IC50 ([2]; hydrochloride): 3.78 nM
CCOC(=O)C(=O)Nc1ccc2oc3c(OC)ccc(C(=O)Nc4c(Cl)cncc4Cl)c3c2c1 [Example 08, N-(3,5-dichloropyrid-4-yl)-4-methoxy-8-ethoxycarbonylcarboxamido-dibenzo[b,d]furan-1-carboxamide] | 110 | 4.68 | 
COc1ccc(C(=O)Nc2c(Cl)cncc2Cl)c2c1oc1ccc(NC(=O)OCC(F)(F)F)cc12 [Example 19, N-(3,5-dichloropyrid-4-yl)-4-methoxy-8-trifluoromethylmethoxycarboxamido-dibenzo[b,d]furan-1-carboxamide] | 9.01 | 4.79 | 
COc1ccc(C(=O)Nc2c(Cl)cncc2Cl)c2c1oc1ccc(NC(=O)NC(C)C)cc12 [Example 26, N-(3,5-dichloropyrid-4-yl)-4-methoxy-8-isopropylamino carboxamido-dibenzo[b,d]furan-1-carboxamide] |  | 15.6 | 
COc1ccc(C(=O)Nc2c(Cl)cncc2Cl)c2c1oc1ccc(N(C(=O)C3CC3)C(=O)C3CC3)cc12 [Example 13, N-(3,5-dichloropyrid-4-yl)-4-methoxy-8-(N,N-dicyclopropylcarbonylamino)-dibenzo[b,d]furan-1-carboxamide] |  | 74 | 
O=C(Nc1ccc2oc3c(OC(F)F)ccc(C(=O)Nc4c(Cl)cncc4Cl)c3c2c1)c1ccco1 [Example 40, N-(3,5-dichloropyrid-4-yl)-4-difluoromethoxy-8-fur-2-ylcarboxamido-dibenzo[b,d]furan-1-carboxamide] | 11.3 | 22 | 
COc1ccc(C(=O)Nc2c(Cl)cncc2Cl)c2c1oc1ccc(NC(=O)NCC(=O)O)cc12 [Example 51, N-(3,5-dichloropyrid-4-yl)-4-methoxy-8-(2-hydroxy-2-oxo-ethylaminocarbonylamino)-dibenzo[b,d]furan-1-carboxamide] | 122 | 1.98 | 
COc1ccc(C(=O)Nc2c(Cl)cncc2Cl)c2c3cc(NC(C)=O)ccc3n(C)c12 [Example 54, N-(3,5-dichloropyrid-4-yl)-1-methoxy-9-methyl-6-acetamido-9H-4-carbazolecarboxamide] |  | 237 | 
CNC(=O)Nc1ccc2oc3c(OC)ccc(C(=O)Nc4c(Cl)cncc4Cl)c3c2c1 [Example 29, N-(3,5-dichloropyrid-4-yl)-4-methoxy-8-methylamino carboxamido-dibenzo[b,d]furan-1-carboxamide] | 19.3 | 2.14 | 
CS(=O)(=O)Nc1ccc2oc3c(OC(F)F)ccc(C(=O)Nc4c(Cl)cncc4Cl)c3c2c1 [Example 31, N-(3,5-dichloropyrid-4-yl)-4-difluoromethoxy-8-methanesulfonamido-dibenzo[b,d]furan-1-carboxamide sodium salt] |  |  | EC50 ([1]; sodium salt): 3.46 nM; IC50 ([2]; sodium salt): 1.43 nM
O=C(O)C(=O)Nc1ccc2oc3c(OC(F)F)ccc(C(=O)Nc4c(Cl)cncc4Cl)c3c2c1 [Example 38, N-(3,5-dichloropyrid-4-yl)-4-difluoromethoxy-8-hydroxycarbonylcarboxamido-dibenzo[b,d]furan-1-carboxamide] | 26.9 | 1.41 | 
COc1ccc(C(=O)Nc2c(Cl)cncc2Cl)c2c1oc1ccc(NC(=O)OCC(C)C)cc12 [Example 16, N-(3,5-dichloropyrid-4-yl)-4-methoxy-8-isobutyloxycarboxamido-dibenzo[b,d]furan-1-carboxamide] |  | 63.6 | 

Second part, led by results:

EC50 [1] [nM] | IC50 [2] [nM] | SMILES | other results
2.07 | 1.03 | COc1ccc(C(=O)Nc2c(Cl)cncc2Cl)c2c1oc1ccc(NS(=O)(=O)N(C)C)cc12 [Example 02, N-(3,5-dichloropyrid-4-yl)-4-methoxy-8-(N,N-dimethylsulphonamido)-dibenzo[b,d]furan-1-carboxamide] | 
6.37 | 0.773 | CCCCNC(=S)Nc1ccc2oc3c(OC)ccc(C(=O)Nc4c(Cl)cncc4Cl)c3c2c1 [Example 45, N-(3,5-dichloropyrid-4-yl)-4-methoxy-8-(n-butylaminothiocarboxamido)-dibenzo[b,d]furan-1-carboxamide] | 
16.2 | 0.557 | COc1ccc(C(=O)Nc2c(Cl)cncc2Cl)c2c1oc1ccc(NC(=O)C3CC3)cc12 [Example 12, N-(3,5-dichloropyrid-4-yl)-4-methoxy-8-(cyclopropylcarbonylamino)-dibenzo[b,d]furan-1-carboxamide] | 
4.34 | 0.887 | COc1ccc(C(=O)Nc2c(Cl)cncc2Cl)c2c1oc1ccc(NC(=O)c3ccco3)cc12 [Example 11, N-(3,5-dichloropyrid-4-yl)-4-methoxy-8-(fur-2-yl-carboxamido)-dibenzo[b,d]furan-1-carboxamide] | 
7.39 | 0.762 | CCS(=O)(=O)Nc1ccc2oc3c(OC)ccc(C(=O)Nc4c(Cl)cncc4Cl)c3c2c1 [Example 03, N-(3,5-dichloropyrid-4-yl)-4-methoxy-8-(ethanesulphonamido)-dibenzo[b,d]furan-1-carboxamide] | 
11.9 | 1.67 | COc1ccc(C(=O)Nc2c(Cl)c[n+]([O-])cc2Cl)c2c1oc1ccc(NS(C)(=O)=O)cc12 [Example 48, N-(3,5-dichloropyrid-4-yl)-4-methoxy-8-methanesulfonamido-dibenzo[b,d]furan-1-carboxamide-N-oxide] | 
23.8 | 1.19 | COc1ccc(C(=O)Nc2c(Cl)cncc2Cl)c2c1oc1ccc(NC(=O)NC3CCCC3)cc12 [Example 21, N-(3,5-dichloropyrid-4-yl)-4-methoxy-8-cyclopentylaminocarboxamido-dibenzo[b,d]furan-1-carboxamide] | 
8.57 | 0.506 | COc1ccc(C(=O)Nc2c(Cl)cncc2Cl)c2c1oc1ccc(NS(C)(=O)=O)cc12 [Example 01, N-(3,5-dichloropyrid-4-yl)-4-methoxy-8-methanesulfonamido-dibenzo[b,d]furan-1-carboxamide] | 
